According to patent US12285012B2, “Compositions comprising pyridine carboxylate herbicides with acetolactate synthase (ALS) inhibitor herbicides” (Corteva Agriscience LLC, priority 2018, dated 2025):

How the values were obtained:
[1] = tested on: spring wheat (TRZAS); assay type: in vivo, Triticum aestivum
Description: (§1) The plants were grown for 7-36 days (d) in a greenhouse with an approximate 14-hour (h) photo-period which was maintained at about 23° C. during the day and 22° C. during the night. Nutrients and water were added on a regular basis and supplemental lighting was provided with overhead metal halide 1000-Watt lamps as necessary. The plants were employed for testing when they reached the second or third true leaf stage.
(§2) The emulsifiable concentrates also included a safener, cloquintocet-mexyl, at 120 grams active ingredient per liter (g ai/L), unless otherwise noted below.
(§3) Control plants were sprayed in the same manner with the solvent blank. All pyridine carboxylate herbicide (component a) application rates are given as “g ae/ha” and all ALS inhibitor (component b) application rates are given as “g ai/ha.”
(§4) The treated plants and control plants were placed in a greenhouse as described above and watered by sub-irrigation to prevent wash-off of the test compounds. After 20-22 d, the condition of the test plants as compared with that of the control plants was determined visually and scored on a scale of 0 to 100 percent where 0 corresponds to no injury and 100 corresponds to complete kill.

[2] = tested on: Canadian thistle (CIRAR, Cirsium arvense); assay: Greenhouse postemergence herbicidal effect; assay type: in vivo
Description: as §1, §2, §3, §4

[3] = tested on: wild chamomile (MATCH, Matricaria chamomilla); assay: Greenhouse postemergence herbicidal effect; assay type: in vivo
Description: as §1, §2, §3, §4

[4] = tested on: Russian thistle (SASKR, Salsola kali); assay: Greenhouse postemergence herbicidal effect; assay type: in vivo
Description: as §1, §2, §3, §4

[5] = tested on: wild mustard (SINAR, Sinapis arvensis); assay: Greenhouse postemergence herbicidal effect; assay type: in vivo
Description: as §1, §2, §3, §4

[6] = tested on: spring rape (BRSNN, Brassica napus); assay: Greenhouse postemergence herbicidal effect; assay type: in vivo
Description: as §1, §2, §3, §4

[7] = tested on: spring barley (HORVS); assay type: in vivo, Hordeum vulgare
Description: as §1, §2, §3, §4

[8] = tested on: common lambsquarters (CHEAL, Chenopodium album L.); assay: Greenhouse postemergence herbicidal effect; assay type: in vivo
Description: (§5) Seeds of the desired test plant species were planted in a 90:10% v/v (volume/volume) mixture of PRO-MIX® BX (Premier Tech Horticulture, Quakertown, PA, USA) and PROFILE® GREENS GRADE™ (Profile Products LLC, Buffalo Grove, IL, USA) planting mixture, which typically has a pH of 5.2 to 6.2 and an organic matter content of at least 50 percent, in plastic pots with a surface area of 103.2 square centimeters (cm^2). […] The plants were grown for 7-36 days (d) in a greenhouse with an approximate 14-hour (h) photo-period which was maintained at about 23° C. during the day and 22° C. during the night. Nutrients and water were added on a regular basis and supplemental lighting was provided with overhead metal halide 1000-Watt lamps as necessary. The plants were employed for testing when they reached the second or third true leaf stage.
(§6) Emulsifiable concentrates of each of each pyridine carboxylate herbicide (Compound A or Compound B) were prepared at 100 grams acid equivalent per liter (g ae/L). The emulsifiable concentrates also included a safener, cloquintocet-mexyl, at 120 grams active ingredient per liter (g ai/L), unless otherwise noted below. An aliquot of each emulsifiable concentrate was placed in a 25 mL glass vial and diluted with an aqueous mixture of 1.25% (v/v) ACTIROB® B esterified rapeseed oil (Bayer Crop Science, Research Triangle Park, NC, USA) or MSO® Concentrate with LECI-TECH® methylated soybean oil (Loveland Products, Loveland, CO, USA) to obtain concentrated stock solutions at the highest application rate for each herbicide, based upon a 12 milliliter (mL) application volume at a rate of 187 liters per hectare (L/ha). The concentrated stock solutions were further diluted with an aqueous mixture of 1.25% v/v ACTIROB® B or MSO® Concentrate with LECI-TECH® to obtain stock solutions at reduced application rates for each herbicide. Spray solutions of the herbicide combinations (Compound A or Compound B plus ALS herbicide) were prepared by adding weighed amounts or aliquots of the ALS herbicides to the stock solutions of Compound A or Compound B to form 12-mL spray solutions in two- or three-way combinations.
(§7) The spray solutions were applied to the plant material with an overhead Mandel track sprayer equipped with 8002E nozzles calibrated to deliver 187 L/ha over an application area of 0.503 square meters (m^2) at a spray height of 18 inches (43 centimeters (cm)) above the average plant canopy. Control plants were sprayed in the same manner with the solvent blank. All pyridine carboxylate herbicide (component a) application rates are given as “g ae/ha” and all ALS inhibitor (component b) application rates are given as “g ai/ha.”
as §4

[9] = tested on: kochia (KCHSC, Kochia scoparia); assay: Greenhouse postemergence herbicidal effect; assay type: in vivo
Description: as §5, §6, §7, §4

[10] = tested on: wild buckwheat (POLCO, Polygonum convolvulus); assay: Greenhouse postemergence herbicidal effect; assay type: in vivo
Description: as §1, §2, §3, §4

[11] = tested on: wild pansy (VIOTR, Viola tricolor); assay: Greenhouse postemergence herbicidal effect; assay type: in vivo
Description: as §1, §2, §3, §4

[12] = tested on: pigweed (AMARE, Amaranthus retroflexus); assay: Greenhouse postemergence herbicidal effect; assay type: in vivo
Description: as §1, §2, §3, §4

[13] = tested on: winter rape (BRSNW, Brassica napus); assay: Greenhouse postemergence herbicidal effect; assay type: in vivo; details: Amidosulfuron 45 g/ha
Description: as §1, §2, §3, §4

[14] = tested on: chickweed (STEME, Stellaria media); assay: Greenhouse postemergence herbicidal effect; assay type: in vivo; details: STEME; Bensulfuron 16 g/ha
Description: as §1, §2, §3, §4

[15] = tested on: broad-leaf dock (RUMOB, Rumex obtusifolius); assay: Greenhouse postemergence herbicidal effect; assay type: in vivo; details: RUMOB; Bensulfuron 16 g/ha
Text: (§8) Seeds of the desired test plant species were planted in a 90:10% v/v (volume/volume) mixture of PRO-MIX® BX (Premier Tech Horticulture, Quakertown, PA, USA) and PROFILE® GREENS GRADE™ (Profile Products LLC, Buffalo Grove, IL, USA) planting mixture, which typically has a pH of 5.2 to 6.2 and an organic matter content of at least 50 percent, in plastic pots with a surface area of 103.2 square centimeters (cm^2). In some aspects, to ensure good germination and healthy plants, a fungicide treatment and/or other chemical or physical treatment was applied. The plants were grown for 7-36 days (d) in a greenhouse with an approximate 14-hour (h) photo-period which was maintained at about 23° C. during the day and 22° C. during the night. Nutrients and water were added on a regular basis and supplemental lighting was provided with overhead metal halide 1000-Watt lamps as necessary. The plants were employed for testing when they reached the second or third true leaf stage.
as §6, §7, §4

[16] = tested on: large crabgrass (DIGSA, Digitaria sanguinalis); assay: Greenhouse postemergence herbicidal effect; assay type: in vivo; details: DIGSA; Bensulfuron 16 g/ha
Text: as §8, §6, §7, §4

## CON=C(C)c1cccc(Oc2nc(OC)cc(OC)n2)c1C(=O)O (mixture of isomers) [Pyriminobac, pyriminobac]
[1]; 17.5 g/ha
  % visual injury, Obs: 0%
[2]; Cirsium arvense, post-emergence, read-out: % visual injury, Obs
  pest or weed control at 17.5 g/ha: 0%
[3]; 17.5 g/ha
  % visual injury, Obs: 5%
[4]; 17.5 g/ha
  % visual injury, Obs: 0%
[5]; 17.5 g/ha
  % visual injury, Obs: 5%
[6]; 17.5 g/ha
  % visual injury, Obs: 0%
[7]; 17.5 g/ha
  % visual injury, Obs: 0%
[8]; 17.5 g/ha
  % visual injury, Obs: 5%
[9]; Bassia scoparia, post-emergence, read-out: % visual injury, Obs
  pest or weed control at 17.5 g/ha: 0%

## COc1cc(OC)nc(NC(=O)NS(=O)(=O)N(C)S(C)(=O)=O)n1 [Amidosulfuron, amidosulfuron]
[10]; Amidosulfuron 45 g/ha
  % visual injury: 55%
[11]; 22.5 g/ha
  % visual injury, Obs: 18%
[12]; Amidosulfuron 45 g/ha
  % visual injury: 100%
[2]; Amidosulfuron 45 g/ha
  % visual injury: 18%
[2]; Cirsium arvense, post-emergence, 22.5 g/ha, read-out: % visual injury, Obs
  pest or weed control at 22.5 g/ha: 15%
[3]; Amidosulfuron 45 g/ha
  % visual injury: 50%
[5]; Amidosulfuron 45 g/ha
  % visual injury: 82%
[13]
  % visual injury: 98%
[6]; 22.5 g/ha
  % visual injury, Obs: 98%
[8]; Amidosulfuron 45 g/ha
  % visual injury: 25%
[9]; Amidosulfuron 45 g/ha
  % visual injury: 5%
[9]; Bassia scoparia, post-emergence, 22.5 g/ha, read-out: % visual injury, Obs
  pest or weed control at 22.5 g/ha: 15%

## COc1cc(OC)nc(NC(=O)NS(=O)(=O)Cc2ccccc2C(=O)O)n1 [Bensulfuron, bensulfuron]
[10]; POLCO, Bensulfuron 16 g/ha
  Obs % visual injury: 80%
[11]; VIOTR, Bensulfuron 16 g/ha
  Obs % visual injury: 8%
[14]
  Obs % visual injury: 8%
[12]; AMARE, Bensulfuron 16 g/ha
  Obs % visual injury: 20%
[2]; CIRAR, Bensulfuron 16 g/ha
  Obs % visual injury: 20%
[3]; 16 g/ha
  % visual injury, Obs: 38%
[4]; 16 g/ha
  % visual injury, Obs: 0%
[15]
  Obs % visual injury: 60%
[16]
  Obs % visual injury: 0%
[8]; 16 g/ha
  % visual injury, Obs: 10%
[8]; CHEAL, Bensulfuron 16 g/ha
  Obs % visual injury: 10%
[9]; 16 g/ha
  % visual injury, Obs: 5%
[9]; KCHSC, Bensulfuron 16 g/ha
  Obs % visual injury: 20%

## CCOc1nc(F)cc2nc(S(=O)(=O)Nc3c(Cl)cccc3C(=O)O)nn12 [Cloransulam, cloransulam]
[1]; Cloransulam 17.5 g/ha
  % visual injury Obs: 0%
[10]; Cloransulam 17.5 g/ha
  % visual injury Obs: 80%
[12]; Cloransulam 17.5 g/ha
  % visual injury Obs: 15%
[3]; Cloransulam 17.5 g/ha
  % visual injury Obs: 40%
[4]; Cloransulam 17.5 g/ha
  % visual injury Obs: 25%
[5]; Cloransulam 17.5 g/ha
  % visual injury Obs: 97%
[6]; Cloransulam 17.5 g/ha
  % visual injury Obs: 100%
[7]; Cloransulam 17.5 g/ha
  % visual injury Obs: 15%
[8]; Cloransulam 17.5 g/ha
  % visual injury Obs: 0%
[9]; Cloransulam 17.5 g/ha
  % visual injury Obs: 0%

## CCOc1nc(F)cc2nc(S(=O)(=O)Nc3c(Cl)cccc3Cl)nn12 [Diclosulam, diclosulam]
[10]; Diclosulam 17.5 g/ha
  % visual injury Obs: 98%
[12]; Diclosulam 17.5 g/ha
  % visual injury Obs: 85%
[3]; Diclosulam 17.5 g/ha
  % visual injury Obs: 68%
[4]; Diclosulam 17.5 g/ha
  % visual injury Obs: 25%
[5]; Diclosulam 17.5 g/ha
  % visual injury Obs: 100%
[6]; Diclosulam 17.5 g/ha
  % visual injury Obs: 100%
[8]; Diclosulam 17.5 g/ha
  % visual injury Obs: 0%
[9]; Diclosulam 17.5 g/ha
  % visual injury Obs: 0%
